Results from PMC5698418 (Nature Communications, 2017).
Counter-ions that a name gives are not always drawn. Like-named read-outs stand apart in the source and are kept apart here.

System: BDNF-induced nuclear Arc expression in primary cortical neurons
Experiment: Chemogenomic screen: high-content image-based assay of BDNF-induced nuclear Arc expression (96-well)
Format: cell-based, mouse
Summary of the method: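 Nuclear Arc immunofluorescence is quantified automatically within an acetyl-H3K9-defined nuclear mask from ×40 images. Cultures are DIV13 mouse forebrain cortical neurons seeded at 30,000 per well and exposed to BDNF plus compound at a final 16.7 µM, with triplicate biological replicates.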

[1] = chemogenomic (SMART) screen, BDNF-induced nuclear Arc expression, primary cortical neurons, BDNF control 19.5
[2] = nuclear Arc-positive cells relative to DMSO + BDNF control, negative values = decrease
[3] = BDNF-induced nuclear Arc expression, primary cortical neurons, chemogenomic screen

Compound	Percentage of cell with nuclear Arc immunostaining above 2σ threshold [1]	Fold-change — Normalized to DMSO control (BDNF) [2]	Percentage of cell with nuclear Arc immunostaining above 2σ threshold [3]	also measured
O=C1[C@@H]2[C@H]3CC[C@H](C3)[C@@H]2C(=O)N1CCCCN1CCN(c2ncccn2)CC1 [Tandospirone]	25.7%	1.3 fold		
COc1cc2c(cc1OC)C1CC(=O)C(CC(C)C)CN1CC2 (stereo not shown) [Tetrabenazine]	24.9%	1.3 fold		
CCNC(=O)CC[C@H](N)C(=O)O [Theanine]			9.1%	
CCSc1ccc2c(c1)N(CCCN1CCN(C)CC1)c1ccccc1S2 [Thiethylperazine]			0.529%	
CSc1ccc2c(c1)N(CCC1CCCCN1C)c1ccccc1S2 (stereo not shown) [Thioridazine]			0.0%	
Cc1ccsc1C(=CCCN1CCC[C@@H](C(=O)O)C1)c1sccc1C [Tiagabine]			7.4%	
CCN(CC)CCNC(=O)c1cc(S(C)(=O)=O)ccc1OC [Tiapride hydrochloride]	20.9%	1.1 fold		
Clc1ccc2nsnc2c1NC1=NCCN1 [Tizanidine]	35.8%	1.8 fold		
CC1(C)O[C@@H]2[C@@H](CO[C@@]3(COS(N)(=O)=O)OC(C)(C)O[C@@H]23)O1 [Topiramate]			8.8%	
COc1cccc(C2(O)CCCCC2CN(C)C)c1 (stereo not shown) [Tramadol]				Percentage of cell with nuclear Arc immunostaining above 2σ threshold: 7.5%
N[C@@H]1C[C@H]1c1ccccc1 [Tranylcypromine hydrochloride]	26.6%	1.4 fold		
CN1CCN(CCCN2c3ccccc3Sc3ccc(C(F)(F)F)cc32)CC1 [Trifluoperazine]			0.0%	
CC(CN(C)C)CN1c2ccccc2CCc2ccccc21 (stereo not shown) [Trimipramine maleate]	21.9%	1.1 fold		
CN1[C@@H]2CC[C@H]1C[C@@H](OC(=O)c1c[nH]c3ccccc13)C2 [Tropisetron]	28.5%	1.5 fold		
CN1CCc2c(c3ccccc3n2Cc2ccc(C(=O)NO)cc2)C1 [Tubastatin A]	21.3%	1.1 fold		
COc1cc2c(NC3CCN(C)CC3)nc(N3CCCN(C)CC3)nc2cc1OCCCN(C)C [UNC 0224]	40.5%	2.1 fold		
COc1cc2c(NC3CCN(C4CCCCC4)CC3)nc(N3CCCN(C(C)C)CC3)nc2cc1OCCCN1CCCCC1 [UNC 0646]			5.2%	Fold-change — Normalized to DMSO control (BDNF) (nuclear Arc-positive cells relative to DMSO control (BDNF), negative = decrease): -3.7 fold
CCC(C)C(CC)C(N)=O (stereo not shown) [Valnoctamide]	24.6%	1.3 fold		

Compound	Percentage of cell with nuclear Arc immunostaining above 2σ threshold [1]	Fold-change — Normalized to DMSO control (BDNF) [2]	Percentage of cell with nuclear Arc immunostaining above 2σ threshold [3]	also measured
CCCC(CCC)C(=O)O [Valproate]			8.4%	
CCCC(CCC)C(N)=O [Valpromide]	19.8%	1.0 fold		
COc1ccc(C(CN(C)C)C2(O)CCCCC2)cc1 (stereo not shown) [Venlafaxine]				Percentage of cell with nuclear Arc immunostaining above 2σ threshold: 12.1%
CC[C@]12CCCN3CCc4c(n(c5ccccc45)[C@@](O)(C(=O)OC)C1)[C@@H]32 [Vincamine]	19.0%			
CCOC(=O)C1=C[C@]2(CC)CCCN3CCc4c(n1c1ccccc41)[C@@H]32 [Vinpocetine]	12.5%			
COc1cccc([C@H](O)C2CCN(CCc3ccc(F)cc3)CC2)c1OC [Volinanserin]			9.0%	
O=C(CCCCCCC(=O)Nc1ccccc1)NO [Vorinostat]	19.8%	1.0 fold		
Cc1ccc(Sc2ccccc2N2CCNCC2)c(C)c1 [Vortioxetine]			0.0%	
COc1ccc(/C=C/c2cc(OC)cc(=O)o2)cc1 [Yangonin]	29.7%	1.5 fold		
O=C1Cc2cc(CCN3CCN(c4nsc5ccccc45)CC3)c(Cl)cc2N1 [Ziprasidone]			3.3%	
CN(C)CCc1c[nH]c2ccc(C[C@H]3COC(=O)N3)cc12 [Zolmitriptan]	42.5%	2.2 fold		
NS(=O)(=O)Cc1noc2ccccc12 [Zonisamide]			9.8%	
Bromocryptine		2.3 fold		Percentage of cell with nuclear Arc immunostaining above 2σ threshold: 45.0%
CHIR-98014				Fold-change — Normalized to DMSO control (BDNF): -1.0 fold; Percentage of cell with nuclear Arc immunostaining above 2σ threshold: 19.2%
Dihydroergotoxine mesylate	24.3%	1.2 fold		
Eburnamonine (-)	18.5%	-1.1 fold		
LM22A-4	14.0%	-1.4 fold		
